Converted amounts (≈) assume the structure as drawn. Where two headings read alike, the source gives them in different places.
Columns and labels:
Format in all cases: cell-based
[1] = test system: APC-resistant Haemophilus influenza.; experiment: MIC90, agar plate dilution method (NCCLS), Table 2; settings: for MIC90: Haemophilus
Protocol: (§1) The MIC90 values for this test were determined by the agar plate dilution method according to the National Committee for Clinical Laboratory Standards (“NCCLS”).

[2] = test system: PCG-resistant S. pneumoniae; experiment: MIC90, agar plate dilution method (NCCLS), Table 2; settings: 10 isolates
Protocol: as §1

[3] = test system: OFLX-resistant Enterobacteriaceae; experiment: MIC90, agar plate dilution method (NCCLS), Table 2
Protocol: as §1

GM-resistant S. aureus = experiment: MIC90, agar plate dilution method (NCCLS), Table 2; settings: Staphylococcus aureus, 10 isolates, read-out: MIC90 Geometric Mean
Protocol: as §1

[4] = test system: GM-resistant P. aeruginosa; experiment: MIC90, agar plate dilution method (NCCLS), Table 2; settings: 10 isolates
Protocol: as §1

OFLX-resistant S. aureus = experiment: MIC90, agar plate dilution method (NCCLS), Table 2; settings: Staphylococcus aureus, 10 isolates, read-out: MIC90 Geometric Mean
Protocol: as §1

[5] = test system: S. pneumoniae, levofloxacin-resistant; experiment: MIC90, broth microdilution (CLSI M7-A7), Table 4; settings: Streptococcus pneumoniae, 25 isolates
Protocol: (§2) The MIC90 values were determined according to the broth microdilution method outlined in the Clinical and Laboratory Standards Institute Approved Standard M7-A7 (2006).

[6] = test system: S. epidermidis, methicillin-resistant; experiment: MIC90, broth microdilution (CLSI M7-A7), Table 4; settings: Staphylococcus epidermidis, 64 isolates
Protocol: as §2

[7] = test system: H. influenzae, β-lactamase positive, ampicillin-resistant; experiment: MIC90, broth microdilution (CLSI M7-A7), Table 4; settings: 25 isolates; for MIC90: Haemophilus influenzae
Protocol: as §2

[8] = test system: S. pneumoniae, penicillin-resistant; experiment: MIC90, broth microdilution (CLSI M7-A7), Table 4; settings: 26 isolates; for MIC90: Streptococcus pneumoniae
Protocol: as §2

[9] = test system: S. aureus, methicillin-resistant and ciprofloxacin-sensitive; experiment: MIC90, broth microdilution (CLSI M7-A7), Table 4; settings: 25 isolates; for MIC90: Staphylococcus aureus
Protocol: as §2

[10] = test system: S. aureus, methicillin- and ciprofloxacin-resistant; experiment: MIC90, broth microdilution (CLSI M7-A7), Table 4; settings: Staphylococcus aureus, 24 isolates
Protocol: as §2

[11] = test system: E. cloacae, extended-spectrum β-lactamase positive; experiment: MIC90, broth microdilution (CLSI M7-A7), Table 4; settings: Enterobacter cloacae, 15 isolates
Protocol: as §2

[12] = test system: S. aureus, vancomycin-resistant; experiment: MIC90, broth microdilution (CLSI M7-A7), Table 4; settings: Staphylococcus aureus, 3 isolates, read-out: MIC90 Geometric Mean
Protocol: as §2

[13] = test system: S. pneumoniae, penicillin-intermediately resistant; experiment: MIC90, broth microdilution (CLSI M7-A7), Table 4; settings: Streptococcus pneumoniae, 26 isolates
Protocol: as §2

[14] = test system: S. aureus, vancomycin-intermediately resistant; experiment: MIC90, broth microdilution (CLSI M7-A7), Table 4; settings: Staphylococcus aureus, 23 isolates
Protocol: as §2

[15] = test system: H. influenzae, β-lactamase positive; experiment: MIC90, broth microdilution (CLSI M7-A7), Table 4; settings: 53 isolates; for MIC90: Haemophilus influenzae
Protocol: as §2

[16] = test system: S. aureus Clinical Isolates; experiment: In vitro activity against clinical isolates, sixth test, Table 7; settings: Staphylococcus aureus, 49 isolates
[17] = test system: S. pneumoniae Clinical Isolates; experiment: as above; settings: 78 isolates; for MIC90: Streptococcus pneumoniae

`O=C(O)c1cn(C2CC2)c2cc(N3CCNCC3)c(F)cc2c1=O` [CPLX, ciprofloxacin] was tested. Which “MIC90 Range” value ([1]; APC-resistant Haemophilus influenza., 10 isolates) did it give?
Its value is “≦0.06 μg/ml”.

And the MIC90 ([1]; read-out: MIC90 Geometric Mean)?
Its MIC90 is ≤ 0.06 µg/mL.

What about the MIC90 ([1]; read-out: MIC90 Value) of the same compound?
Its MIC90 is ≤ 0.06 µg/mL.

And the “MIC90 Range” value [2]?
Its value is 0.5 to 2 µg/mL.

And the “MIC90 Range” value ([3]; OFLX-resistant Enterobacteriaceae, 10 isolates)?
Its value is 4 to 32 µg/mL.

What about the MIC90 ([3]; read-out: MIC90 Geometric Mean) of the same compound?
The MIC90 was 10.6 µg/mL (≈ 32 µM).

And the MIC90 (GM-resistant S. aureus)?
Its MIC90 is 26 µg/mL (≈ 78.5 µM).

What about the “MIC90 Range” value [4] of the same compound?
The value was 0.13 to 32 µg/mL.

What about the MIC90 ([4]; Pseudomonas aeruginosa, read-out: MIC90 Geometric Mean) of the same compound?
Its MIC90 is 1.87 µg/mL (≈ 5.64 µM).

What about the MIC90 (OFLX-resistant S. aureus) of the same compound?
The MIC90 was 147 µg/mL (≈ 444 µM).

Which results are given for `COc1c(N2CCNC(C)C2)c(F)cc2c(=O)c(C(=O)O)cn(C3CC3)c12` (stereo not shown) [GTFX, gatifloxacin]?
MIC90 ([5]; read-out: MIC90 Geometric Mean): 5.43 µg/mL (≈ 14.5 µM); MIC90 ([5]; read-out: MIC90 Value): > 8 µg/mL; MIC90 ([6]; read-out: MIC90 Geometric Mean): 1.43 µg/mL (≈ 3.8 µM); MIC90 ([6]; read-out: MIC90 Value): > 8 µg/mL; MIC90 Range [7]: 0.008 to 0.06 µg/mL; MIC90 ([7]; read-out: MIC90 Geometric Mean): 0.022 µg/mL (≈ 0.0586 µM); MIC90 ([7]; read-out: MIC90 Value): 0.03 µg/mL (≈ 0.0799 µM); MIC90 Range [8]: 0.12 to 0.5 µg/mL; MIC90 ([8]; read-out: MIC90 Geometric Mean): 0.293 µg/mL (≈ 0.781 µM); MIC90 ([8]; read-out: MIC90 Value): 0.5 µg/mL (≈ 1.33 µM); MIC90 Range [9]: 0.03 to 8 µg/mL; MIC90 ([9]; read-out: MIC90 Geometric Mean): 0.099 µg/mL (≈ 0.264 µM); MIC90 ([9]; read-out: MIC90 Value): 0.12 µg/mL (≈ 0.32 µM); MIC90 ([10]; read-out: MIC90 Geometric Mean): > 8 µg/mL; MIC90 ([10]; read-out: MIC90 Value): > 8 µg/mL; MIC90 ([11]; read-out: MIC90 Geometric Mean): 1.58 µg/mL (≈ 4.21 µM); MIC90 ([11]; read-out: MIC90 Value): > 8 µg/mL; MIC90 [12]: 6.35 µg/mL (≈ 16.9 µM); MIC90 ([13]; read-out: MIC90 Geometric Mean): 0.344 µg/mL (≈ 0.916 µM); MIC90 ([13]; read-out: MIC90 Value): 0.5 µg/mL (≈ 1.33 µM); MIC90 ([14]; read-out: MIC90 Geometric Mean): 3.65 µg/mL (≈ 9.72 µM); MIC90 ([14]; read-out: MIC90 Value): 8 µg/mL (≈ 21.3 µM); MIC90 ([15]; read-out: MIC90 Geometric Mean): 0.014 µg/mL (≈ 0.0373 µM); MIC90 ([15]; read-out: MIC90 Value): 0.03 µg/mL (≈ 0.0799 µM); MIC90 [16]: 2 µg/mL (≈ 5.33 µM); MIC90 Range [17]: 0.12 to 0.5 µg/mL; MIC90 [17]: 0.25 µg/mL (≈ 0.666 µM)

How did the MIC90 [16] turn out when `C[C@H]1COc2c(N3CCN(C)CC3)c(F)cc3c(=O)c(C(=O)O)cn1c23` [LVFX, levofloxacin] was run?
The MIC90 was 4 µg/mL (≈ 11.1 µM).

And the “MIC90 Range” value [17]?
Its value is 0.5 to 2 µg/mL.

What about the MIC90 [17] of the same compound?
The MIC90 was 1 µg/mL (≈ 2.77 µM).

What does the source list for `COc1c(N2C[C@@H]3CCCN[C@@H]3C2)c(F)cc2c(=O)c(C(=O)O)cn(C3CC3)c12` [MOFX, moxifloxacin]?
MIC90 ([5]; read-out: MIC90 Geometric Mean): 3.68 µg/mL (≈ 9.17 µM); MIC90 ([5]; read-out: MIC90 Value): > 8 µg/mL; MIC90 ([6]; read-out: MIC90 Geometric Mean): 1.12 µg/mL (≈ 2.8 µM); MIC90 ([6]; read-out: MIC90 Value): > 8 µg/mL; MIC90 Range [7]: 0.015 to 0.12 µg/mL; MIC90 ([7]; read-out: MIC90 Geometric Mean): 0.047 µg/mL (≈ 0.117 µM); MIC90 ([7]; read-out: MIC90 Value): 0.12 µg/mL (≈ 0.299 µM); MIC90 Range [8]: 0.06 to 0.25 µg/mL; MIC90 ([8]; read-out: MIC90 Geometric Mean): 0.217 µg/mL (≈ 0.541 µM); MIC90 ([8]; read-out: MIC90 Value): 0.25 µg/mL (≈ 0.623 µM); MIC90 Range [9]: 0.015 to 8 µg/mL; MIC90 ([9]; read-out: MIC90 Geometric Mean): 0.057 µg/mL (≈ 0.142 µM); MIC90 ([9]; read-out: MIC90 Value): 0.12 µg/mL (≈ 0.299 µM); MIC90 ([10]; read-out: MIC90 Geometric Mean): 6.92 µg/mL (≈ 17.2 µM); MIC90 ([10]; read-out: MIC90 Value): > 8 µg/mL; MIC90 ([11]; read-out: MIC90 Geometric Mean): 2.75 µg/mL (≈ 6.85 µM); MIC90 ([11]; read-out: MIC90 Value): > 8 µg/mL; MIC90 [12]: 6.35 µg/mL (≈ 15.8 µM); MIC90 ([13]; read-out: MIC90 Geometric Mean): 0.209 µg/mL (≈ 0.521 µM); MIC90 ([13]; read-out: MIC90 Value): 0.25 µg/mL (≈ 0.623 µM); MIC90 ([14]; read-out: MIC90 Geometric Mean): 2.69 µg/mL (≈ 6.7 µM); MIC90 ([14]; read-out: MIC90 Value): 8 µg/mL (≈ 19.9 µM); MIC90 Range [15]: 0.015 to 0.06 µg/mL; MIC90 ([15]; read-out: MIC90 Geometric Mean): 0.03 µg/mL (≈ 0.0747 µM); MIC90 ([15]; read-out: MIC90 Value): 0.06 µg/mL (≈ 0.149 µM); MIC90 Range [17]: 0.06 to 0.25 µg/mL; MIC90 [17]: 0.12 µg/mL (≈ 0.299 µM)
